Test results as given in US10245351B2, “Malleable hydrogel hybrids made of self-assembled peptides and biocompatible polymers and uses thereof” (Technology Innovation Momentum Fund (Israel) Limited …, priority 2010, dated 2019).

System: CHO (Chinese Hamster Ovaries) cells
Experiment: Cells viability test (MTT), cells on top of hydrogel
Type: cell-based
Experimental: To verify the ability of the hybrid hydrogels described herein to be used in biological applications, their biocompatibility was determined using an in vitro cell culture experiment. Three types of cells were cultivated on top of the hybrid hydrogels: CHO (Chinese Hamster Ovaries), fibroblasts and chondrocytes.
CHO, fibroblasts and chondrocytes cells were grown in Dulbecco's Modified
Eagle Medium (DMEM) supplemented with 10% fetal calf serum, 100 U/ml penicillin, 100 U/ml streptomycin, and 2 mmol/liter L-glutamine (all from Beit Haemeck, Israel). Cells were maintained at 37° C. in a humidified atmosphere containing 5% CO2. Subconfluent cultures were harvested by trypsinization, counted, and diluted in specific cells' media to form a cell concentration of 10^6 cells/ml. The gels swelled overnight with 0.1 ml DMEM. The next day, DMEM was removed and […] of the CHO cells (10^5 cells) were placed on top of the hydrogel. After 1, 3 and 7 days of incubation at 37° C. the viability of the cells was determined using an MTT assay.
The cell viability was analyzed 1, 3 and 7 days post seeding. Cells seeded as monolayers with PBS were used as control. Cell viability was analyzed using an MTT assay. […]

With hyaluronic acid [HA] the “viability, in words” value was “high viability”.
